Results from patent US20260176282A1, “BICYCLIC COMPOUNDS AS CDK INHIBITORS” (BEONE MEDICINES I GMBH, priority 2023, published 2026).
Like-named read-outs stand apart in the source and are kept apart here.

Assays:
CDK1/Cyclin B1 [1] = biological target: T1, CDK1/Cyclin B1 (Homo sapiens, UniProt P06493); test: CDK1/Cyclin B1 TR-FRET biochemical assay (0.015 mM ATP); details: 120 minutes reaction
Method: (§1) Compounds disclosed herein were tested for inhibition of CDK2/Cyclin E1 or CDK1/Cyclin B1 kinase in an assay based on the time-resolved fluorescence-resonance energy transfer (TR-FRET) methodology. The assay was carried out in 384-well low volume black plates in a reaction mixture containing CDK2/Cyclin E1 or CDK1/Cyclin B1, 0.060 mM ATP for CDK2/Cyclin E1 or 0.015 mM ATP for CDK1/Cyclin B1, 0.15 μM Rb (Ser780)-biotin substrate and 0-10 μM compound in buffer containing 50 mM HEPES pH7.0, 0.02% NaN3, 0.01% BSA, 0.1 mM Orthovanadate, 50 mM MgCl2, 1 mM DTT and 0.005% Tween-20. The kinase was incubated with compound for 60 minutes at room temperature and the reaction was initiated by the addition of ATP and Rb (Ser780)-biotin substrate. After reaction at room temperature for 120 minutes, an equal volume of stop/detection solution was added according to the manufacture's instruction (Cisbio Bioassays). The stop/detection solution contained Streptavidin-XL665 and Anti-pRb (Ser780) mAb-Eu Cryptate in Detection buffer (Cisbio Bioassays). Plates were incubated at room temperature for 60 minutes, and the TR-FRET signals (ex337 nm, em665 nm/620 nm) were recorded on a PHERAstar FSX plate reader (BMG Labtech). The inhibition percentage of CDK2/Cyclin E1 or CDK1/Cyclin B1 kinase activity in presence of increasing concentrations of compounds was calculated based on the ratio of fluorescence at 665 nm to that at 620 nm. The IC50 for each compound was derived from fitting the data to the four-parameter logistic equation by Dotmatics.

CDK2/Cyclin E1 [2] = biological target: T2, CDK2/Cyclin E1 (Homo sapiens, UniProt P24941); test: CDK2/Cyclin E1 TR-FRET biochemical assay (0.060 mM ATP); details: 120 minutes reaction
Method: as §1

HEK-293 cells = test: HEK-293 cell cytotoxicity detection (CellTiter-Glo); assay type: cell-based; details: incubation of 72 h, CellTiter-Glo luminescence
Method: HEK-293 cells were treated with compounds diluted in 0.4% DMSO, dilution was done according to the following protocol: (1) making 250× stock solution in DMSO from 10 mM by 4-fold dilution, total 8 doses were included; (2) making 2 solution in cell culture medium by transferring 1 μl 250× stock solution into 124 μl medium; (3) adding 50 μl of 2× solution to cells for incubation of 72 h.
25 μl of the CellTiter-Glo® Reagent [(PromegaCat #G9242)] was added to each well in the 96-well plate. The contents were mixed for 2 minutes on an orbital shaker to induce cell lysis. The plate was then allowed to incubate at room temperature for 10 minutes to stabilize luminescent signal. Luminescence was recorded on BMG PheraStar with luminescence protocol.
The IC50 value of a compound can be obtained by fitting the following equation: […]
Wherein, X and Y are known values, and IC50, Hillslope, Top and Bottom are the parameters obtained by fitting with software. Y is the inhibition percentage (calculated from the equation), X is the concentration of the compound; IC50 is the concentration of the compound when the 50% inhibition is reached. The smaller the IC50 value is, the stronger the inhibitory ability of the compound is. Vice versa, the higher the IC50 value is, the weaker the ability the inhibitory ability of the compound is; Hillslope represents the slope of the fitted curve, generally around 1*; Bottom represents the minimum value of the curve obtained by data fitting, which is generally 0%±20%; Top represents the maximum value of the curve obtained by data fitting, which is generally 100%±20%. The experimental data were fitted by calculating and analyzing with Dotmatics data analysis software.

CDK2/Cyclin E1 [3] = biological target: T2, CDK2/Cyclin E1; test: CDK2/Cyclin E1 TR-FRET biochemical assay (1 mM ATP); details: 90 minutes reaction
Method: as §1, with “1” for “0.060”, “and” for “or 0.015 mM ATP for”, “90” for “120”

CDK1/Cyclin B1 [4] = biological target: T1, CDK1/Cyclin B1; test: CDK1/Cyclin B1 TR-FRET biochemical assay (1 mM ATP); details: 90 minutes reaction
Method: as §1, with “1” for “0.060”, “and” for “or 0.015 mM ATP for”, “90” for “120”

T1 sequence (P06493 whole entry): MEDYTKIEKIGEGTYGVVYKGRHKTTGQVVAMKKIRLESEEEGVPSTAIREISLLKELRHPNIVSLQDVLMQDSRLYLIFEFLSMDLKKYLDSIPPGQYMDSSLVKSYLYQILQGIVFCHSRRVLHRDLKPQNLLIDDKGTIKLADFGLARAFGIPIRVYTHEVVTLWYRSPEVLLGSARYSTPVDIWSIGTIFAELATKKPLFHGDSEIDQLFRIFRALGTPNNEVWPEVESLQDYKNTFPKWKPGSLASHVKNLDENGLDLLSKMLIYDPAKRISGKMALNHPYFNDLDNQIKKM
T1 sequence (P14635 whole entry partner): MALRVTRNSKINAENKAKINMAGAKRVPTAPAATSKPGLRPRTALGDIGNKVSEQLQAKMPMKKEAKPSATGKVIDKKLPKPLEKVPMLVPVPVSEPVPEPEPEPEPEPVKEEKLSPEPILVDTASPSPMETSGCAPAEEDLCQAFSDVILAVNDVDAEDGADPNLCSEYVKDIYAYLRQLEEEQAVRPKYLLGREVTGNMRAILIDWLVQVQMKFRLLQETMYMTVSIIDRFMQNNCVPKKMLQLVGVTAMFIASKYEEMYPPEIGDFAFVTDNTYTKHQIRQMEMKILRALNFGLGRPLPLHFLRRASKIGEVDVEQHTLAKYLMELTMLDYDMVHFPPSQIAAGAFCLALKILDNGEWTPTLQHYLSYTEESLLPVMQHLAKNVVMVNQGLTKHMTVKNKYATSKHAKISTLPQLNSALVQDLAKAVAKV

**Q.** Which results are given for `CC(C)NC(=O)OC1CCC(c2cc(Nc3ccc4c(c3F)CCS4(=O)=O)n[nH]2)C1` (single isomer, unassigned) [Example 2b, cis-3-(3-((4-fluoro-1,1-dioxido-2,3-dihydrobenzo[b]thiophen-5-yl)amino)-1H-pyrazol-5-yl)cyclopentyl isopropylcarbamate]?
**A.** IC50 (CDK1/Cyclin B1 [1]): 207 nM; IC50 (CDK2/Cyclin E1 [2]): 4.8 nM; IC50 (HEK-293 cells; read-out: HEK293 IC50): > 10000 nM

**Q.** `CC(C)NC(=O)O[C@H]1CC[C@@H](c2cc(Nc3ccc4c(c3F)CS(=O)(=O)C4)n[nH]2)C1` (relative stereo) [Example 8b, cis-3-(3-((4-fluoro-2,2-dioxido-1,3-dihydrobenzo[c]thiophen-5-yl)amino)-1H-pyrazol-5-yl)cyclopentyl isopropylcarbamate] was tested. Which IC50 (CDK1/Cyclin B1 [1]) did it give?
**A.** 7.9 nM

**Q.** What about the IC50 (CDK2/Cyclin E1 [2]) of the same compound?
**A.** 0.5 nM

**Q.** And the IC50 (HEK-293 cells; Homo sapiens, HEK293, 72 h)?
**A.** 462 nM

**Q.** `CCCNC(=O)O[C@H]1CC[C@@H](c2cc(Nc3ccc4c(c3F)S(=O)(=O)CC4)n[nH]2)C1` (relative stereo) [Example 4, cis-3-(3-((7-fluoro-1,1-dioxido-2,3-dihydrobenzo[b]thiophen-6-yl)amino)-1H-pyrazol-5-yl)cyclopentyl propylcarbamate] was tested. Which IC50 (CDK1/Cyclin B1 [1]) did it give?
**A.** 191 nM

**Q.** What about the IC50 (CDK2/Cyclin E1 [2]) of the same compound?
**A.** 17 nM

**Q.** And the IC50 (HEK-293 cells; Homo sapiens, HEK293, 72 h)?
**A.** 8590 nM

**Q.** Which results are given for `CC(C)NC(=O)OC1CCC(c2cc(Nc3ccc4c(c3F)CCS4(=O)=O)n[nH]2)C1` (single isomer, unassigned) [Example 2a, cis-3-(3-((4-fluoro-1,1-dioxido-2,3-dihydrobenzo[b]thiophen-5-yl)amino)-1H-pyrazol-5-yl)cyclopentyl isopropylcarbamate]?
**A.** IC50 (CDK1/Cyclin B1 [1]): 591 nM; IC50 (CDK2/Cyclin E1 [2]): 16 nM; IC50 (HEK-293 cells; Homo sapiens, HEK293, 72 h): > 10000 nM

**Q.** Which IC50 (CDK2/Cyclin E1 [3]) does the source give for `CC(C)NC(=O)O[C@H]1CC[C@@H](c2cc(Nc3ccc4c(c3F)CSC4)n[nH]2)C1` (relative stereo) [Example 33, cis-3-(3-((4-fluoro-1,3-dihydrobenzo[c]thiophen-5-yl)amino)-1H-pyrazol-5-yl)cyclopentyl isopropylcarbamate] here?
**A.** 22 nM

**Q.** And the IC50 (HEK-293 cells; Homo sapiens, HEK293, 72 h)?
**A.** > 10000 nM

**Q.** And the IC50 (CDK1/Cyclin B1 [4])?
**A.** 4880 nM

**Q.** Which results are given for `CC1(NC(=O)OC2CCC(c3cc(Nc4ccc5c(c4F)CS(=O)(=O)C5)n[nH]3)C2)CCOC1` (single isomer, unassigned) [Example 13c, cis-3-(3-((4-fluoro-2,2-dioxido-1,3-dihydrobenzo[c]thiophen-5-yl)amino)-1H-pyrazol-5-yl)cyclopentyl (3-methyltetrahydrofuran-3-yl)carbamate]?
**A.** IC50 (CDK2/Cyclin E1 [3]): 0.5 nM; IC50 (HEK-293 cells; read-out: HEK293 IC50): 1720 nM; IC50 (CDK1/Cyclin B1 [4]): 208 nM

**Q.** Which results are given for `CCNC(=O)OC1CCC(c2cc(Nc3ccc4c(c3F)CS(=O)(=O)C4)n[nH]2)C1` (single isomer, unassigned) [Example 18a, cis-3-(3-((4-fluoro-2,2-dioxido-1,3-dihydrobenzo[c]thiophen-5-yl)amino)-1H-pyrazol-5-yl)cyclopentyl ethylcarbamate]?
**A.** IC50 (CDK2/Cyclin E1 [3]): 5.2 nM; IC50 (HEK-293 cells; read-out: HEK293 IC50): > 10000 nM; IC50 (CDK1/Cyclin B1 [4]): 1300 nM

**Q.** Which IC50 (CDK2/Cyclin E1 [3]) does the source give for `O=C(NC1CCOC1)OC1CCC(c2cc(Nc3ccc4c(c3F)CS(=O)(=O)C4)n[nH]2)C1` (single isomer, unassigned) [Example 24a, cis-3-(3-((4-fluoro-2,2-dioxido-1,3-dihydrobenzo[c]thiophen-5-yl)amino)-1H-pyrazol-5-yl)cyclopentyl (tetrahydrofuran-3-yl)carbamate] here?
**A.** 17 nM

**Q.** And the IC50 (HEK-293 cells; Homo sapiens, HEK293, 72 h)?
**A.** > 10000 nM

**Q.** What about the IC50 (CDK1/Cyclin B1 [4]) of the same compound?
**A.** 4730 nM

**Q.** `CC1(NC(=O)OC2CCC(c3cc(Nc4ccc5c(c4F)CS(=O)(=O)C5)n[nH]3)C2)CCOC1` (single isomer, unassigned) [Example 13d, cis-3-(3-((4-fluoro-2,2-dioxido-1,3-dihydrobenzo[c]thiophen-5-yl)amino)-1H-pyrazol-5-yl)cyclopentyl (3-methyltetrahydrofuran-3-yl)carbamate] was tested. Which IC50 (CDK2/Cyclin E1 [3]) did it give?
**A.** 0.9 nM

**Q.** And the IC50 (HEK-293 cells; read-out: HEK293 IC50)?
**A.** 4210 nM

**Q.** And the IC50 (CDK1/Cyclin B1 [4])?
**A.** 322 nM

**Q.** How did the IC50 (CDK2/Cyclin E1 [3]) turn out when `O=C(NCCC(F)(F)F)O[C@H]1CC[C@@H](c2cc(Nc3ccc4c(c3F)CS(=O)(=O)C4)n[nH]2)C1` (relative stereo) [Example 16, cis-3-(3-((4-fluoro-2,2-dioxido-1,3-dihydrobenzo[c]thiophen-5-yl)amino)-1H-pyrazol-5-yl)cyclopentyl (3,3,3-trifluoropropyl)carbamate] was run?
**A.** 0.7 nM

**Q.** What about the IC50 (HEK-293 cells; Homo sapiens, HEK293, 72 h) of the same compound?
**A.** 687 nM

**Q.** What about the IC50 (CDK1/Cyclin B1 [4]) of the same compound?
**A.** 155 nM

**Q.** `O=C(N[C@H]1CC[C@@H](O)CC1)OC1CCC(c2cc(Nc3ccc4c(c3F)CS(=O)(=O)C4)n[nH]2)C1` (stereo partly drawn) [Example 17, cis-3-(3-((4-fluoro-2,2-dioxido-1,3-dihydrobenzo[c]thiophen-5-yl)amino)-1H-pyrazol-5-yl)cyclopentyl ((1s,4s)-4-hydroxycyclohexyl)carbamate] was tested. Which IC50 (CDK2/Cyclin E1 [3]) did it give?
**A.** 2.3 nM

**Q.** What about the IC50 (HEK-293 cells; Homo sapiens, HEK293, 72 h) of the same compound?
**A.** 990 nM

**Q.** And the IC50 (CDK1/Cyclin B1 [4])?
**A.** 824 nM

**Q.** `O=C(NC1CCOC1)OC1CCC(c2cc(Nc3ccc4c(c3F)CS(=O)(=O)C4)n[nH]2)C1` (single isomer, unassigned) [Example 24b, cis-3-(3-((4-fluoro-2,2-dioxido-1,3-dihydrobenzo[c]thiophen-5-yl)amino)-1H-pyrazol-5-yl)cyclopentyl (tetrahydrofuran-3-yl)carbamate] was tested. Which IC50 (CDK2/Cyclin E1 [3]) did it give?
**A.** 61 nM

**Q.** And the IC50 (HEK-293 cells; read-out: HEK293 IC50)?
**A.** > 10000 nM

**Q.** What about the IC50 (CDK1/Cyclin B1 [4]) of the same compound?
**A.** 7870 nM

**Q.** `CC1(NC(=O)OC2CCC(c3cc(Nc4ccc5c(c4F)CS(=O)(=O)C5)n[nH]3)C2)COC1` (single isomer, unassigned) [Example 15a, cis-3-(3-((4-fluoro-2,2-dioxido-1,3-dihydrobenzo[c]thiophen-5-yl)amino)-1H-pyrazol-5-yl)cyclopentyl (3-methyloxetan-3-yl)carbamate] was tested. Which IC50 (CDK2/Cyclin E1 [3]) did it give?
**A.** 1.9 nM

**Q.** What about the IC50 (HEK-293 cells; Homo sapiens, HEK293, 72 h) of the same compound?
**A.** > 10000 nM

**Q.** What about the IC50 (CDK1/Cyclin B1 [4]) of the same compound?
**A.** 1090 nM

**Q.** With `O=C(NCC(F)(F)F)O[C@H]1CC[C@@H](c2cc(Nc3ccc4c(c3F)CS(=O)(=O)C4)n[nH]2)C1` (relative stereo) [Example 22, cis-3-(3-((4-fluoro-2,2-dioxido-1,3-dihydrobenzo[c]thiophen-5-yl)amino)-1H-pyrazol-5-yl)cyclopentyl (2,2,2-trifluoroethyl)carbamate] as the compound, how does the IC50 (CDK2/Cyclin E1 [3]) read?
**A.** 4.5 nM

**Q.** What about the IC50 (HEK-293 cells; Homo sapiens, HEK293, 72 h) of the same compound?
**A.** > 10000 nM

**Q.** What about the IC50 (CDK1/Cyclin B1 [4]) of the same compound?
**A.** 1050 nM

**Q.** How did the IC50 (CDK2/Cyclin E1 [3]) turn out when `CC(C)(CO)NC(=O)O[C@H]1CC[C@@H](c2cc(Nc3ccc4c(c3F)CS(=O)(=O)C4)n[nH]2)C1` (relative stereo) [Example 19, cis-3-(3-((4-fluoro-2,2-dioxido-1,3-dihydrobenzo[c]thiophen-5-yl)amino)-1H-pyrazol-5-yl)cyclopentyl (1-hydroxy-2-methylpropan-2-yl)carbamate] was run?
**A.** 0.8 nM

**Q.** What about the IC50 (HEK-293 cells; Homo sapiens, HEK293, 72 h) of the same compound?
**A.** 201 nM

**Q.** What about the IC50 (CDK1/Cyclin B1 [4]) of the same compound?
**A.** 181 nM
